Measurements taken from ChEMBL document CHEMBL1201862, “PubChem BioAssay data set” (2004).
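Test compounds were applied to cells in 96-well plates for 48 hours at 5 doses. GI50 is the concentration that inhibits growth by half.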 Calls of active or inactive are those of the source. Cut-off read from the data, not from the text of the source: active = GI50 up to about 1.1 µM and inactive = higher. Where a SMILES comes first, the peptide text is derived from it. [ ]: non-standard residue; d: D form. The star is where a group is joined. ξ: configuration not given here. X38 = O=C(OCc1ccccc1)[C@@H]1CCC[C@H]1N*; Fmoc = O=C(OCC1c2ccccc2-c2ccccc21)*; ξW = NC(Cc1c[nH]c2ccccc12)C(=O)O; ξF = NC(Cc1ccccc1)C(=O)O; Boc = CC(C)(C)OC(=O)*; ξK = NCCCCC(N)C(=O)O; ξT = CC(O)C(N)C(=O)O; tBu = CC(C)(C)*

How the values were obtained:
Assay in all cases: NCI-60 cell line screen, 48 h
SF-539 = system: SF-539
786-0 = system: 786-0
NCI-H522 = system: NCI-H522
COLO 205 = system: COLO 205
UACC-62 = system: UACC-62
CAKI-1 = system: CAKI-1
SK-MEL-2 = system: SK-MEL-2
ACHN = system: ACHN
HL-60 = system: HL-60
HCC 2998 = system: HCC 2998
HOP-92 = system: HOP-92
LOX IMVI = system: LOX IMVI
KM12 = system: KM12
HOP-62 = system: HOP-62
SF-295 = system: SF-295
OVCAR-4 = system: OVCAR-4
NCI-H460 = system: NCI-H460
MOLT-4 = system: MOLT-4
NCI/ADR-RES = system: NCI/ADR-RES
SNB-75 = system: SNB-75

SMILES | GI50 (SF-539) | GI50 (786-0) | GI50 (NCI-H522) | GI50 (COLO 205) | GI50 (UACC-62) | GI50 (CAKI-1) | GI50 (SK-MEL-2) | GI50 (ACHN) | GI50 (HL-60) | GI50 (HCC 2998) | GI50 (HOP-92) | GI50 (LOX IMVI) | GI50 (KM12) | GI50 (HOP-62) | GI50 (SF-295) | GI50 (OVCAR-4) | GI50 (NCI-H460) | GI50 (MOLT-4) | GI50 (NCI/ADR-RES) | GI50 (SNB-75)
CC(=O)NNC1=NN(C(C)=O)C2(S1)C(=O)Nc1ccc(Br)cc12 (centres undefined) | > 100 µM (inactive) | > 100 µM (inactive) | > 100 µM (inactive) | > 10 µM (inactive) | 79.1 µM (inactive) | > 100 µM (inactive) | > 100 µM (inactive) | > 100 µM (inactive) | > 100 µM (inactive) | > 100 µM (inactive) | 65.5 µM (inactive) | > 100 µM (inactive) | > 100 µM (inactive) | > 100 µM (inactive) | > 100 µM (inactive) | 78.3 µM (inactive) | 93.3 µM (inactive) | > 100 µM (inactive) | > 100 µM (inactive) | > 100 µM (inactive)
CC1=CC[C@H](C(C)C)C(C(O)[C@@H](C)O[Si](c2ccccc2)(c2ccccc2)C(C)(C)C)C1=O (some centres undefined) | 20.1 µM (inactive) | 15 µM (inactive) | 16.5 µM (inactive) | 17.2 µM (inactive) | 14.8 µM (inactive) | 14 µM (inactive) | 15.1 µM (inactive) | 15.6 µM (inactive) | 16.9 µM (inactive) | 12.7 µM (inactive) | 20.8 µM (inactive) | 21.8 µM (inactive) | 18.5 µM (inactive) | 20.9 µM (inactive) | 15 µM (inactive) | 15.5 µM (inactive) | 14.8 µM (inactive) | 7.36 µM (inactive) | 16.7 µM (inactive) | 23 µM (inactive)
COc1cc(NC=C2C(=O)OC(C)(C)OC2=O)c(OC)c(C)c1OC | > 100 µM (inactive) | > 100 µM (inactive) | > 100 µM (inactive) | > 100 µM (inactive) | > 100 µM (inactive) | > 83.4 µM (inactive) | > 100 µM (inactive) | > 100 µM (inactive) | > 100 µM (inactive) | > 100 µM (inactive) | > 100 µM (inactive) | > 100 µM (inactive) | > 100 µM (inactive) | > 100 µM (inactive) | > 100 µM (inactive) | > 74 µM (inactive) | > 100 µM (inactive) | > 100 µM (inactive) | > 100 µM (inactive) | > 88.3 µM (inactive)
CC(C)(C)c1cc(OCc2nnc3sc(Cc4ccccc4)nn23)c(Cl)cc1OCc1nnc2sc(Cc3ccccc3)nn12 | 30.8 µM (inactive) | 17.3 µM (inactive) | 37.2 µM (inactive) | 21.6 µM (inactive) | 19.5 µM (inactive) | 34.3 µM (inactive) | 37.8 µM (inactive) | 24.9 µM (inactive) | 23.8 µM (inactive) | 4.4 µM (inactive) | 15.8 µM (inactive) | 29.1 µM (inactive) | 18.8 µM (inactive) | 46.6 µM (inactive) | 23.3 µM (inactive) | 24.8 µM (inactive) | 17.7 µM (inactive) | 17.3 µM (inactive) | 76 µM (inactive) | 15.3 µM (inactive)
[O-][S+]1SC(=S)C2C=CC=CC21 (centres undefined) | > 100 µM (inactive) | > 100 µM (inactive) | 76.2 µM (inactive) | > 100 µM (inactive) | 58.5 µM (inactive) | > 100 µM (inactive) | > 100 µM (inactive) | > 100 µM (inactive) | 1.62 µM (inactive) | > 100 µM (inactive) | > 100 µM (inactive) | 34.7 µM (inactive) | > 100 µM (inactive) | – | 88.9 µM (inactive) | > 100 µM (inactive) | 34 µM (inactive) | > 100 µM (inactive) | > 100 µM (inactive) | 74 µM (inactive)
C=C1CC(COc2ccc3c(C)c(C)c(=O)oc3c2C)(c2ccccc2)OC1=O (centres undefined) | 2.02 µM (inactive) | 1.41 µM (inactive) | 1.64 µM (inactive) | 1.6 µM (inactive) | 1.69 µM (inactive) | 1.5 µM (inactive) | 2.02 µM (inactive) | 3.51 µM (inactive) | 0.711 µM (active) | 2.48 µM (inactive) | 1.45 µM (inactive) | 1 µM (active) | 2.86 µM (inactive) | 6.22 µM (inactive) | 5.66 µM (inactive) | 2.32 µM (inactive) | 6.01 µM (inactive) | 1.11 µM (active) | 2.7 µM (inactive) | 2.67 µM (inactive)
C=C(C=O)c1c2c(nc3ccccc13)C(=O)c1ccccc1C2=O | 0.673 µM (active) | 0.826 µM (active) | 0.366 µM (active) | 1.1 µM (active) | 0.918 µM (active) | 0.52 µM (active) | 1.37 µM (inactive) | 0.434 µM (active) | 0.31 µM (active) | 2.75 µM (inactive) | 1.67 µM (inactive) | 0.316 µM (active) | 1.22 µM (inactive) | 1.15 µM (inactive) | 1.29 µM (inactive) | 1.77 µM (inactive) | 0.581 µM (active) | 0.282 µM (active) | 0.265 µM (active) | 1.14 µM (inactive)
CC(OC(C)(C)C)C(NC(=O)C(CCCCNC(=O)OC(C)(C)C)NC(=O)C(Cc1c[nH]c2ccccc12)NC(=O)C(Cc1ccccc1)NC(=O)OCC1c2ccccc2-c2ccccc21)C(=O)NC(Cc1ccccc1)C(=O)N[C@@H]1CCC[C@H]1C(=O)OCc1ccccc1 (some centres undefined) (Fmoc-[ξF][ξW][ξK](Boc)[ξT](tBu)[ξF]-X38) | > 100 µM (inactive) | > 100 µM (inactive) | > 100 µM (inactive) | > 100 µM (inactive) | > 100 µM (inactive) | 62.2 µM (inactive) | 32.1 µM (inactive) | > 100 µM (inactive) | > 100 µM (inactive) | > 100 µM (inactive) | > 100 µM (inactive) | > 100 µM (inactive) | > 100 µM (inactive) | > 100 µM (inactive) | > 100 µM (inactive) | > 100 µM (inactive) | > 100 µM (inactive) | > 100 µM (inactive) | > 100 µM (inactive) | > 100 µM (inactive)
CC(O)CCC(=O)c1ccoc1 (centres undefined) | 9930 µM (inactive) | > 10000 µM (inactive) | 3680 µM (inactive) | 5580 µM (inactive) | 5210 µM (inactive) | 2730 µM (inactive) | 7710 µM (inactive) | 5640 µM (inactive) | 3350 µM (inactive) | 8610 µM (inactive) | 2490 µM (inactive) | 6030 µM (inactive) | 7710 µM (inactive) | 6930 µM (inactive) | 7130 µM (inactive) | 5110 µM (inactive) | 7230 µM (inactive) | 4080 µM (inactive) | 4990 µM (inactive) | 3500 µM (inactive)
O[C@H]1[C@H]2[C@H](O)C[C@H](CCOCc3ccccc3)CN2C[C@H]1O | > 100 µM (inactive) | > 100 µM (inactive) | > 100 µM (inactive) | > 100 µM (inactive) | > 100 µM (inactive) | > 100 µM (inactive) | > 100 µM (inactive) | > 100 µM (inactive) | > 100 µM (inactive) | > 100 µM (inactive) | > 100 µM (inactive) | > 100 µM (inactive) | > 100 µM (inactive) | – | > 100 µM (inactive) | > 100 µM (inactive) | > 100 µM (inactive) | > 100 µM (inactive) | > 100 µM (inactive) | 45.4 µM (inactive)
CC(=O)N1c2ccccc2C23CCN(C)CC4C(C)OCC(C4CC2=O)C13 (centres undefined) | > 100 µM (inactive) | > 100 µM (inactive) | > 100 µM (inactive) | > 100 µM (inactive) | > 100 µM (inactive) | > 100 µM (inactive) | > 100 µM (inactive) | > 100 µM (inactive) | > 100 µM (inactive) | > 100 µM (inactive) | > 100 µM (inactive) | > 100 µM (inactive) | > 100 µM (inactive) | – | > 100 µM (inactive) | > 100 µM (inactive) | > 100 µM (inactive) | > 100 µM (inactive) | > 100 µM (inactive) | > 100 µM (inactive)
Cc1c(S(=O)(=O)O)ccc(/N=N/c2c(O)c(C(=O)O)cc3ccccc23)c1Cl | – | > 89.3 µM (inactive) | > 100 µM (inactive) | > 100 µM (inactive) | > 100 µM (inactive) | > 86.5 µM (inactive) | > 100 µM (inactive) | > 100 µM (inactive) | > 100 µM (inactive) | > 100 µM (inactive) | > 100 µM (inactive) | > 100 µM (inactive) | > 100 µM (inactive) | > 100 µM (inactive) | > 100 µM (inactive) | > 100 µM (inactive) | > 100 µM (inactive) | > 100 µM (inactive) | > 100 µM (inactive) | > 100 µM (inactive)
CCCC(=O)NC(C(=O)OCC)(N1CCOCC1)C(F)(F)F (centres undefined) | > 100 µM (inactive) | > 100 µM (inactive) | > 100 µM (inactive) | > 100 µM (inactive) | > 100 µM (inactive) | > 100 µM (inactive) | > 100 µM (inactive) | > 100 µM (inactive) | > 100 µM (inactive) | > 100 µM (inactive) | > 100 µM (inactive) | > 100 µM (inactive) | > 100 µM (inactive) | > 100 µM (inactive) | > 100 µM (inactive) | > 100 µM (inactive) | – | > 100 µM (inactive) | > 100 µM (inactive) | > 100 µM (inactive)
COc1ccc(/C=C2\N/C(=N\N=C/C(O)C(O)C(O)C(O)CO)NC2=O)cc1 (centres undefined) | 19.6 µM (inactive) | 35.5 µM (inactive) | 20.3 µM (inactive) | 44.6 µM (inactive) | – | > 100 µM (inactive) | 17.8 µM (inactive) | 32.2 µM (inactive) | > 100 µM (inactive) | 11.6 µM (inactive) | 16.1 µM (inactive) | 65.3 µM (inactive) | 30 µM (inactive) | 24.9 µM (inactive) | 40.5 µM (inactive) | 24 µM (inactive) | 42.7 µM (inactive) | 8.63 µM (inactive) | > 100 µM (inactive) | 22.1 µM (inactive)
